Columns and labels:
HeLa = assay: CCK-8 cytotoxicity assay, HeLa; type: cell-based; settings: Homo sapiens, CCK-8, 72 h treatment
Description: (§1) The CCK-8 assay was used to determine cell viability. Test samples were dissolved in dimethyl sulfoxide (DMSO) to make stock solutions and further diluted in culture medium for assays. Human cancer cell lines (HeLa, PANC-1, and A549) were cultured in RPMI 1640, DMEM or DMEM/F12 (1:1) medium containing 10% fetal bovine serum. Cells were maintained at 37 °C in a humidified environment under 5% CO2. Cell proliferation assays were performed as previously described. Briefly, each cell line was seeded in a 96-well tissue culture plate at a predetermined density in 180 µL of complete medium, attached overnight and treated with test compound for 72 h. Then the medium was discarded and replaced with 10% CCK-8 in complete medium and the plates incubated for another 2 h. OD450 was measured with a SpectraMAX 190 spectrophotometer (MDS, Sunnyvale, CA, USA). Background absorbance was subtracted for all wells. Inhibition rate (IR) was determined. IR (%) = (ODDMSO − ODcompound)/ODDMSO × 100%.

A549 = assay: CCK-8 cytotoxicity assay, A549; type: cell-based; settings: Homo sapiens, CCK-8, 72 h treatment
Description: as §1

PANC-1 = assay: CCK-8 cytotoxicity assay, PANC-1; type: cell-based; settings: Homo sapiens, CCK-8, 72 h treatment
Description: as §1

[1] = CCK-8 cytotoxicity assay, immortalized HL7702 normal liver cells; type: cell-based; settings: immortalized HL-7702 normal liver cells; CCK-8, 72 h treatment; normal human liver cells, selectivity
HeLa, PANC-1, and A549 = assay: Cytotoxicity against cell line panel (summary statements); type: cell-based; settings: Homo sapiens; summary of Table 2; cell line not specified; read-out: Inhibition on cell viability, IC50
Description: as §1

HeLa cells = assay: Flow cytometry analysis of apoptosis and cell cycle arrest (PI staining); type: cell-based, human; settings: 24 h, FACS
Description: Figure 3 Effects of 1, 5, 16, and 17 on cell cycle and apoptosis. HeLa cells were treated with indicated chemicals. After 24 h of treatment, the cells were harvested, fixed in 70% EtOH, and stained with PI. The cell cycle and apoptosis rate were detected by FACS. Etoposide is used as positive control; (A) Cell cycle attribution of HeLa cells under different concentration treatment; (B) Apoptotic rates were acquired from Sub-G1 fraction from A.
Hypodiploid DNA and cell cycle arrest were evaluated as described previously. Briefly, after treatment of HeLa cancer cells with vehicle (0.1% DMSO) or test compound at the indicated concentrations and times, the cells were harvested by trypsinization and fixed with 70% (v/v) alcohol at 4 °C for 30 min. After washing with PBS, RNase (10 µg/mL) was added and incubated for 15 min at 37 °C to eliminate RNA interference. The cells were then treated with propidium iodide (PI) for another 30 min. The cells were washed, and the DNA content determined using FACSCalibur.

[2] = system: HeLa cells (PARP, caspase-3, LC3B, p62); assay: Western blot of apoptosis and autophagy related proteins; type: cell-based, human; settings: 24 h
Description: Figure 4 Effects of 1, 5, 16, and 17 on apoptosis and autophagy related proteins. Western blots of p62, LC3B, PARP, Caspase 3, and GAPDH of HeLa cells after 24 h treatment with 1, 5, 16, and 17. Etoposide was used as positive control.
Cell lysate was prepared in RIPA buffer and quantified by the bicinchoninic acid (BCA) method (Pierce, Rockford, IL, USA). Thirty micrograms of protein per sample was loaded onto a 4%~12% NuPAGE® Novex SDS gel. Protein was transferred using an iBlot® dry blotting device onto nitrocellulose membranes. After blocking nonspecific binding with TBS/Tween20 (0.1%) (TBS/T) containing 5% non-fat milk for 1 h at room temperature, the membrane was incubated in LC3B (Sigma, L7543), SQSTM1/p62 (MBL, PM045), PARP (CST #9542P, Cell Signaling Technology, Shanghai, China), or caspase-3 (CST #9662P, Cell Signaling Technology) (1:1000 in TBS/T containing 3% bovine serum albumin (BSA) in all cases) with gentle shaking at 4 °C overnight. Membranes were washed three times with TBS/T to remove unbound antibody and then incubated with secondary antibody (HRP-conjugated goat anti-mouse IgG or goat anti-rabbit IgG (1:5000) for 1 h at room temperature. Protein bands were visualized with an enhanced chemiluminescence kit (ECL, Pierce).

[3] = system: HeLa cells stably expressing GFP-LC3; assay: GFP-LC3 puncta imaging; type: cell-based, human; settings: HeLa-GFP-LC3 cells, 10, 20 µM, 24 h, confocal images
Description: Figure 5 Xanthone V1 (17) induces GFP-LC3 puncta formation in HeLa cells. HeLa cells stably expressing GFP-LC3 were seeded in a 96-well dish and treated with 10, 20 µM 17 for 24 h. (A) The number of GFP-LC3 puncta in each samples were calculated by Columbus software. The number was averaged of cells from three wells; (B) The images of GFP-LC3 puncta after 10, 20 µM treatment Xanthone V1 were acquired by an Opera (GFP ex and em) with a 40×-H2O objective. Left Panel: the original GFP-LC3 puncta; Right panel: the spots were auto-analyzed by Columbus software.
HeLa cells stably expressing GFP-LC3 were generated as previously described. Briefly, HeLa cells were transfected with pEGFP-LC3 plasmid using Lipofectamine 2000 (11668-019, Invitrogen, Carlsbad, CA, USA). One day after transfection, the cells were treated with 800 μg/mL G418 for 7 days. Surviving cells (termed HeLa-GFP-LC3 below) were continually cultured with 800 μg/mL G418. HeLa-GFP-LC3 cells were seeded in a 96-well plate overnight (clear bottom, black, Perkin-Elmer, Waltham, MA, USA). The cells were then treated with test compounds in triplicate. After 48 h, the cells were fixed with 4% paraformaldehyde and washed three times with PBS. […] The data were analyzed using Columbus 2.3 software (Perkin-Elmer). To quantify GFP-LC3 spots, the following procedures were performed: 1. […]

SMILES	IC50 (HeLa) [µM]	IC50 (A549) [µM]	IC50 (PANC-1) [µM]	IC50 at 72 h [1] [µM]	IC50 (HeLa, PANC-1, and A549) [µM]	Cell cycle arrest phase (HeLa cells)	PARP cleavage [2]	Induction of apoptosis (Sub-G1 fraction) (HeLa cells)	Conversion of LC3-I to LC3-II [2]	p62 level [2]	GFP-LC3 puncta formation [3]
CC(C)=CCc1c(O)c(O)c2oc3c(CC=C(C)C)c(O)ccc3c(=O)c2c1O [Compound 1, 1,3,4,6-tetrahydroxy-2,5-di(3-methylbut-2-enyl)-xanthone]	8.09 ± 0.78	12.6 ± 4.3	14.8 ± 8.68	11 ± 4.36	< 10	at the G2/M phase	–	–	–	–	–
CC(C)=CCc1c2c(c3oc4c(O)c(O)ccc4c(=O)c3c1O)C=CC(C)(C)O2 [Compound 5, 1,5,6-trihydroxy-2-prenyl-6′,6′-dimethyl-2H-pyrano(2′,3′:3,4)xanthone]	7.06 ± 0.71	8.19 ± 0.99	9.32 ± 4.58	10.5 ± 4.12	< 10	cell cycle arrest at the S phase in a dose-dependent fashion	activated PARP cleavage	–	–	–	–
C=C(C)C(O)C[C@H](C[C@@]12C[C@@H](CC=C(C)C)C(C)(C)[C@@](CC=C(C)C)(C(=O)C(C(=O)c3ccc(O)c(O)c3)=C1O)C2=O)C(=C)C (stereo partly shown) [Compound 8, garcimultiflorone E]	17.6 ± 1.45	7.57 ± 0.57	17.7 ± 1.56	7.34 ± 0.65	< 10	–	–	–	–	–	–
C=C(C)C(CC=C(C)C)C[C@@]12C[C@@H](CC=C(C)C)C(C)(C)[C@@](CC=C(C)C)(C1=O)c1oc3cc(O)c(O)cc3c(=O)c1C2=O (stereo partly shown) [Compound 15, symphonone H]	9.83 ± 0.61	6.27 ± 0.71	11.2 ± 4.89	3.96 ± 2.38	< 10	–	–	–	–	–	–
CC1(C)C=Cc2c(cc3oc4c(O)c(O)ccc4c(=O)c3c2O)O1 [Compound 16, jacareubin]	1.09 ± 0.67	6.9 ± 2.23	10.1 ± 7.91	5.5 ± 1.79	< 10	at the G2/M phase	activated PARP cleavage	induced apoptosis	–	–	–
CC(C)=CCc1c2c(c(O)c3c(=O)c4ccc(O)c(O)c4oc13)C=CC(C)(C)O2 [Compound 17, xanthone V1]	4.71 ± 0.52	11.8 ± 6.29	6.56 ± 2.55	9.5 ± 3.74	< 10	at the G1 phase	activated PARP cleavage	induced apoptosis	increased the conversion of LC3-I to LC3-II	p62 reduction	an increase in GFP-LC3 puncta was observed
COc1cc([C@@H]2c3cc4c(cc3[C@@H](O[C@@H]3O[C@@H]5CO[C@@H](C)O[C@H]5[C@H](O)[C@H]3O)[C@H]3COC(=O)[C@H]23)OCO4)cc(OC)c1O [Etoposide, reference compound]	2.91 ± 0.16	1.31 ± 0.09	22.8 ± 1.93	1.42 ± 0.13	–	–	–	–	–	–	–

— paper PMC6272390, “Xanthones from the Leaves of Garcinia cowa Induce Cell Cycle Arrest, Apoptosis, and Autophagy in Cancer Cells” (Molecules, 2015)
